Consider 1 compound from ChEMBL document CHEMBL4373747 (ACS Med Chem Lett, 2020).

As a reminder, the IC50 is the concentration at which inhibition is half-maximal. By Cmax is commonly meant the maximum level reached in the sampled fluid or tissue. One may read the Tmax as the time at which the peak concentration occurs. The term half-life denotes how long it takes for the measured level to halve. A lower half-life goes with fast loss.

Data set [1] deals with T1, Protein deacetylase HDAC6 (Homo sapiens, UniProt Q9UBN7).
T1 sequence (Q9UBN7 whole entry): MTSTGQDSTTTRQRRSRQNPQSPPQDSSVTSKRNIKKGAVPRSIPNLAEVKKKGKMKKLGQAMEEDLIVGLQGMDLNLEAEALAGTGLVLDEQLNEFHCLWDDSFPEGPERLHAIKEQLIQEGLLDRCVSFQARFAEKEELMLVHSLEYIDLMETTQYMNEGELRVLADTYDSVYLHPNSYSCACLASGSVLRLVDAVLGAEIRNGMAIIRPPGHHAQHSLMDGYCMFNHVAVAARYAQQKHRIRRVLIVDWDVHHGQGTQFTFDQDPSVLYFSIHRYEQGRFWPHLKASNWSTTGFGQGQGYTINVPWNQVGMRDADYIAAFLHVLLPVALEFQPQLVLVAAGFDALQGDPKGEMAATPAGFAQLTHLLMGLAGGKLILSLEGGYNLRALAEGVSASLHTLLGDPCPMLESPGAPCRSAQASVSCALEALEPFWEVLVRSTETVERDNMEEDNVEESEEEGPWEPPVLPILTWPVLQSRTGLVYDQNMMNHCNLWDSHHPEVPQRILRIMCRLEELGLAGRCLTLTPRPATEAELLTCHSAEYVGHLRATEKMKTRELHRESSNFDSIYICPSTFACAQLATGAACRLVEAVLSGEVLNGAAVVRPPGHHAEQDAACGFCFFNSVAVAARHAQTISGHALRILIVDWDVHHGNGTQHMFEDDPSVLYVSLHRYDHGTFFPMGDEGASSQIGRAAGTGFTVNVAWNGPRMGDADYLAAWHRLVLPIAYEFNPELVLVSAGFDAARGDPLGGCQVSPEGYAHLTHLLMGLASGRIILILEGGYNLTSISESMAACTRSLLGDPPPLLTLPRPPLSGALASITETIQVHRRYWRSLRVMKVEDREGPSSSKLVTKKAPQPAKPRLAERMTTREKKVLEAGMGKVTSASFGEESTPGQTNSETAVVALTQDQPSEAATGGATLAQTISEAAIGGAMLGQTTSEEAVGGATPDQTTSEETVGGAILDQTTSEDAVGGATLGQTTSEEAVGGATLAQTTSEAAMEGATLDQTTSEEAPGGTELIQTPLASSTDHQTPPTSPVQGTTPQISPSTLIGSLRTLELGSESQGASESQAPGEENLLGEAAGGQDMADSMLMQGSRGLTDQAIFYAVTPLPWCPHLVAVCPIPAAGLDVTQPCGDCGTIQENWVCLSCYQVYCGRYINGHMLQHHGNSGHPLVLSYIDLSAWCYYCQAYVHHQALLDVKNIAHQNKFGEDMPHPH
Kind of data set: Inhibition of recombinant full length human HDAC6 expressed in baculovirus infected Sf9 cells using FAM-RHKK-Ac as substrate incubated for 5 hrs by electrophoretic mobility shift assay. (Mobility shift assays separate free from complexed probe on a gel.)

For the next data set, the target named is T2, Histone deacetylase 8 (Homo sapiens, UniProt Q9BY41).
T2 sequence (Q9BY41 whole entry): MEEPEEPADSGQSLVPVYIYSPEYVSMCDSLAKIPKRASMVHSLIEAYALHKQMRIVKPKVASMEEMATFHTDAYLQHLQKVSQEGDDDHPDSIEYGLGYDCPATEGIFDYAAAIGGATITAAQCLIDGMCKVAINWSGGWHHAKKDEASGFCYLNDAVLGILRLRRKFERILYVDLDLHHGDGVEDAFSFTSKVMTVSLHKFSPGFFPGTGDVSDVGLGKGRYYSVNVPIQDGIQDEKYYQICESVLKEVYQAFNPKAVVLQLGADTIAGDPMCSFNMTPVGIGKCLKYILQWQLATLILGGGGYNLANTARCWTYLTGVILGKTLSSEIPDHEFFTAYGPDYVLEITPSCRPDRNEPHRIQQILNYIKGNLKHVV
Kind of data set: Inhibition of recombinant full length human HDAC8 expressed in baculovirus infected Sf9 cells using FAM-RHKK-TFAc as substrate incubated for 3 hrs by electrophoretic mobility shift assay.

A further data set addresses T3, Histone deacetylase 11 (Homo sapiens, UniProt Q96DB2).
T3 sequence (Q96DB2 whole entry): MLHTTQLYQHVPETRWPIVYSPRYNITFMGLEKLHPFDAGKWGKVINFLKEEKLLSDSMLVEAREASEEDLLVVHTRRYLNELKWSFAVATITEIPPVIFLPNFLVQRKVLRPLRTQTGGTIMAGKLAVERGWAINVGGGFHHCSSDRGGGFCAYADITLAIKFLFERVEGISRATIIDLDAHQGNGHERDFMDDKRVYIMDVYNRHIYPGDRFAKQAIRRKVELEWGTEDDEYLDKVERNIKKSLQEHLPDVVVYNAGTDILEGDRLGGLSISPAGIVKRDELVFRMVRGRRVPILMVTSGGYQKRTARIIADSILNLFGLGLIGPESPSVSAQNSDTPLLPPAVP
Put plainly: Inhibition of recombinant full length human HDAC11 expressed in baculovirus infected Sf9 cells using FAM-RHKK-TFAc as substrate incubated for 17 hrs by electrophoretic mobility shift assay.

In data set [2] the test system is MV4-11. Put plainly: Cytotoxicity against human MV4-11 cells assessed as reduction in cell viability incubated for 72 hrs by cell-titer blue assay. Type of data set: functional, cell-based. The settings on record: MV4-11, 72 h.
The next data set deals with Histone deacetylase 2 (Homo sapiens, UniProt Q92769). Kind of data set: Inhibition of recombinant full length human HDAC2 expressed in baculovirus infected Sf9 cells using FAM-RHKK-Ac as substrate incubated for 17 hrs by electrophoretic mobility shift assay.
Sequence of Histone deacetylase 2 (Q92769 whole entry): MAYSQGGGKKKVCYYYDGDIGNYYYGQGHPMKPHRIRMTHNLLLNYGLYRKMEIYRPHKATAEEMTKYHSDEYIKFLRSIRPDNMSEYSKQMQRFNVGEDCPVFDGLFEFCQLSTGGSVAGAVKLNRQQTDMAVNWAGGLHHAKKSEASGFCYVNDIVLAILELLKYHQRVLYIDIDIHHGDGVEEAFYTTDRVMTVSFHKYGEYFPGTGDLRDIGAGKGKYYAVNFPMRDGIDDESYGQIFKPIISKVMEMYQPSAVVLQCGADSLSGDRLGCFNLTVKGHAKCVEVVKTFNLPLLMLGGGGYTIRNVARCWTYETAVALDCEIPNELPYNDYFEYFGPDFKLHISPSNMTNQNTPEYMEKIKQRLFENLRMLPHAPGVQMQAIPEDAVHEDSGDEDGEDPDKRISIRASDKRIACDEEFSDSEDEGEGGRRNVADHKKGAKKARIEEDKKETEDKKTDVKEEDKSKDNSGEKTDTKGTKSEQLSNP
In a further data set the target is Histone deacetylase 4 (Homo sapiens, UniProt P56524). Put plainly: Inhibition of recombinant full length human HDAC4 expressed in baculovirus infected Sf9 cells using FAM-RHKK-TFAc as substrate incubated for 1.5 hrs by electrophoretic mobility shift assay.
Sequence of Histone deacetylase 4 (P56524 whole entry): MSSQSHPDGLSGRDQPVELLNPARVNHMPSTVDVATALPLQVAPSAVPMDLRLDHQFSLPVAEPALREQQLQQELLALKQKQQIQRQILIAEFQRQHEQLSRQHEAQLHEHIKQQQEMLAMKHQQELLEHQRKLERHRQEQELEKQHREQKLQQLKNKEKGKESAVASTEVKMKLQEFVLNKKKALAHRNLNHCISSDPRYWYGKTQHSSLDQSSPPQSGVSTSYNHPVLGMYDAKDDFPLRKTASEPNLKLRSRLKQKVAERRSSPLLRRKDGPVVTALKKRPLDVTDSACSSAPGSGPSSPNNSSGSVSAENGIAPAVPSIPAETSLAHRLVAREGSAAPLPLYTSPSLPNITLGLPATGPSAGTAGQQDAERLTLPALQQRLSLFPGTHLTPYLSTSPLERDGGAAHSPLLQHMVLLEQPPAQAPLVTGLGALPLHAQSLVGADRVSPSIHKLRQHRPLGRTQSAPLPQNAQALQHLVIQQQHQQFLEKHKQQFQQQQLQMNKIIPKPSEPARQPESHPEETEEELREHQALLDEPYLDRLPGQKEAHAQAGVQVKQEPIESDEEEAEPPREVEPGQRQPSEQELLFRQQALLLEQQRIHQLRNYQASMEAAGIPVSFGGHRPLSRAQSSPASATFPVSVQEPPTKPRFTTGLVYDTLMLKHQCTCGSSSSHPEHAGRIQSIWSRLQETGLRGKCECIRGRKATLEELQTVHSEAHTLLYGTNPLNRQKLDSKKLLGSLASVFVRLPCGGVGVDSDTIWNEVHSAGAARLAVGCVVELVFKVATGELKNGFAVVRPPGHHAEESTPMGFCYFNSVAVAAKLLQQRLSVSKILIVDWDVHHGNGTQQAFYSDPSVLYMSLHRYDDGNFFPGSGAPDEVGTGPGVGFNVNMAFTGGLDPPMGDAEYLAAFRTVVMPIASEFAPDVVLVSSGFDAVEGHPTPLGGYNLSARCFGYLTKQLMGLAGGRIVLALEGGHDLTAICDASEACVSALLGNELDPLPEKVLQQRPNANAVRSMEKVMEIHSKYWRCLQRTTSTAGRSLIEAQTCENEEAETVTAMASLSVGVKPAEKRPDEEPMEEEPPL
Data set [3] concerns MV4-11. Kind of data set: Induction of apoptosis in human MV4-11 cells assessed as late apoptotic cells at 0.25 uM incubated for 18 hrs by annexin V FITC and PI based flow cytometry (reference value: 9.2 to 9.63 %). Type of data set: functional. Background: A flow cytometer gives signals particle by particle.
Data set [4] relates to MV4-11. Put plainly: Induction of apoptosis in human MV4-11 cells assessed as early apoptotic cells at 0.5 uM incubated for 18 hrs by annexin V FITC and PI based flow cytometry (reference value: 19.46 to 22.17 %). It is filed as functional.
Data set [5] relates to MV4-11. Put plainly: Induction of apoptosis in human MV4-11 cells assessed as early apoptotic cells at 4 uM incubated for 18 hrs by annexin V FITC and PI based flow cytometry (reference value: 19.46 to 22.17 %). Type of data set: functional.
Data set [6] concerns MV4-11. Kind of data set: Induction of apoptosis in human MV4-11 cells assessed as late apoptotic cells at 4 uM incubated for 18 hrs by annexin V FITC and PI based flow cytometry (reference value: 9.2 to 9.63 %). Type of data set: functional.
The nature of data set [7]: Stability in CD-1 mouse hepatocytes assessed as compound remaining at 1 uM measured up to 6 hrs by LCMS analysis. Type of data set: ADME, cell-based, Hepatocyte. The settings on record: mouse, 6 h, 1 µM.
Data set [8] addresses T4, Protein deacetylase HDAC6 (Homo sapiens) (UniProt Q9UBN7).
T4 sequence (whole entry): T1 sequence (Q9UBN7 whole entry)
Put plainly: Inhibition of HDAC6 in human MV4-11 cells assessed as increase in acetylated alpha-tubulin incubated for 6 hrs by Western blot analysis. Type of data set: cell-based. In general terms: Immunoblotting shows a protein as a band on a membrane.

Data set [9] in a line: Cmax in NSG mouse. Type of data set: ADME. The settings on record: in vivo.
The nature of data set [10]: Tmax in NSG mouse. It is filed as ADME. The settings on record: in vivo.
Data set [11] in a line: Half life in NSG mouse. It is filed as ADME. To be noted: in vivo.

Some results are limits rather than exact numbers.

For the compound `CC(C)(C)c1ccc(C(=O)Nc2ccc(C(=O)NO)cc2)cc1`, the IC50 in data set [1] is 24.4 nM; on Histone deacetylase 8, 245 nM; on Histone deacetylase 11 it was over 1000 nM; with MV4-11 [2] it was 576 nM; at Histone deacetylase 2 it was over 1000 nM; at Histone deacetylase 4, over 1000 nM. Besides, the Activity in the data set with MV4-11 [3] was 8.74%; in the data set on MV4-11 [4], 20.69%; in the data set with MV4-11 [5], 32.14%; in the data set on MV4-11 [6], 38.48%. Moreover, the Stability in data set [7] was 20%. Moreover, the inhibition entry in [8] is “Dose-dependent effect”. Moreover, the Cmax in [9] was 10.7 µM. Also, the Tmax in data set [10] was found to be 8 h. The same compound gave a half-life in data set [11] of 5 h.
